# In US8987250B2 (Gilead Sciences, Inc., priority 2012, dated 2015):
# Test system: HIV-IIIb
# Assay: Test A: Antiviral Assay in MT4 Cells
# Format: cell-based
# Details: Human immunodeficiency virus 1, IIIB, MT4, 120 h, Table 1; MT-4 cells infected with HIV-IIIb, 5 days of incubation, CellTiter-Glo; read-out: EC50
# Protocol: The antiviral properties of a compound of the invention may be determined using Test A described below.
# Test A: Antiviral Assay in MT4 Cells
# For the antiviral assay utilizing MT-4 cells, 0.4 μL of […] test concentration of 3-fold serially diluted compound in DMSO was added to 40 μL of cell growth medium (RPMI 1640, 10% FBS, 1% penicilline/Streptomycine, 1% L-Glutamine, 1% HEPES) in each well of 384-well assay plates (10 concentrations) in quadruplicate.
# One mL aliquots of 2×10e6 MT-4 cells were pre-infected for 1 and 3 hours respectively, @ 37° C. with 25 uL (MT4) or of either cell growth medium (mock-infected) or a fresh 1:250 dilution of an HIV-IIIb concentrated ABI stock (0.004m.o.i. for MT4 cells). Infected and uninfected cells were diluted in cell growth medium and 35 uL of 2000 (for MT4) cells was added to each well of the assay plates.
# Assay plates were then incubated in a 37° C. incubator. After 5 days of incubation, […] of 2× concentrated CellTiter-Glo™ Reagent (catalog #G7573, Promega Biosciences, Inc., Madison, Wis.) was added to each well of the assay plate. Cell lysis was carried out by incubating at room temperature for 2-3 min and then chemiluminescence was read using the Envision reader (PerkinElmer). […]
row,SMILES,EC50 [nM]
1,"Cc1cc2nc(N3CC(F)C3)sc2c(-c2ccc3c4c(ccnc24)CCO3)c1[C@H](OC(C)(C)C)C(=O)O (atropisomer, axis not shown) [Compound 56, (S)-2-tert-butoxy-2-((S)-7-(2,3-dihydropyrano[4,3,2-de]quinolin-7-yl)-2-(3-fluoroazetidin-1-yl)-5-methylbenzo[d]thiazol-6-yl)acetic acid]",62.4
2,"Cc1cc2nc(N3CC(C)C3)sc2c(-c2ccc3c4c(ccnc24)CCO3)c1[C@H](OC(C)(C)C)C(=O)O (atropisomer, axis not shown) [Compound 57, (S)-2-tert-butoxy-2-((S)-7-(2,3-dihydropyrano[4,3,2-de]quinolin-7-yl)-5-methyl-2-(3-methylazetidin-1-yl)benzo[d]thiazol-6-yl)acetic acid]",147
3,"Cc1cc2nc(N3CC(S(C)(=O)=O)C3)sc2c(-c2ccc3c4c(ccnc24)CCO3)c1[C@H](OC(C)(C)C)C(=O)O (atropisomer, axis not shown) [Compound 58, (S)-2-tert-butoxy-2-((S)-7-(2,3-dihydropyrano[4,3,2-de]quinolin-7-yl)-5-methyl-2-(3-(methylsulfonyl)azetidin-1-yl)benzo[d]thiazol-6-yl)acetic acid]",3520
4,"Cc1c([C@H](OC(C)(C)C)C(=O)O)c(-c2ccc3c4c(ccnc24)CCO3)c2sc(N3CCC3)nc2c1F (atropisomer, axis not shown) [Compound 76, (S)-2-((S)-2-(azetidin-1-yl)-7-(2,3-dihydropyrano[4,3,2-de]quinolin-7-yl)-4-fluoro-5-methylbenzo[d]thiazol-6-yl)-2-tert-butoxyacetic acid]",26
5,"CCC(C)(C)O[C@H](C(=O)O)c1c(C)cc2nc(N3CCC3)sc2c1-c1ccc2c3c(ccnc13)CCO2 (atropisomer, axis not shown) [Compound 89, (S)-2-((S)-2-(azetidin-1-yl)-7-(2,3-dihydropyrano[4,3,2-de]quinolin-7-yl)-5-methylbenzo[d]thiazol-6-yl)-2-(tert-pentyloxy)acetic acid]",36.6
6,"Cc1cc2nc(-c3cccc(-c4ccc5c(cnn5C)c4)c3)sc2c(-c2cc(F)c3c(c2C)C(=O)CCO3)c1[C@H](OC(C)(C)C)C(=O)O (atropisomer, axis not shown) [Compound 167]",39
7,"Cc1cc2nc(-c3cccc(-c4ccc5c(cnn5C)c4)c3)sc2c(-c2cc(F)c3c(c2C)CCCO3)c1[C@H](OC(C)(C)C)C(=O)O (atropisomer, axis not shown) [Compound 168]",42
8,"COc1cncc(-c2cc(-c3nc4cc(C)c([C@H](OC(C)(C)C)C(=O)O)c(-c5ccc(Cl)cc5)c4s3)ccn2)c1 [Compound 105, (S)-2-tert-butoxy-2-(7-(4-chlorophenyl)-2-(5′-methoxy-2,3′-bipyridin-4-yl)-5-methylbenzo[d]thiazol-6-yl)acetic acid]",16
9,"Cc1cc2nc(-c3cccc(-c4cncnc4)c3)sc2c(-c2ccc(Cl)cc2)c1[C@H](OC(C)(C)C)C(=O)O [Compound 106, (S)-2-tert-butoxy-2-(7-(4-chlorophenyl)-5-methyl-2-(3-(pyrimidin-5-yl)phenyl)benzo[d]thiazol-6-yl)acetic acid]",103
10,"Cc1cc2nc(-c3ccnc(-c4ccc5cnn(C)c5c4)c3)sc2c(-c2ccc(Cl)cc2)c1[C@H](OC(C)(C)C)C(=O)O [Compound 108, (S)-2-tert-butoxy-2-(7-(4-chlorophenyl)-5-methyl-2-(2-(1-methyl-1H-indazol-6-yl)pyridin-4-yl)benzo[d]thiazol-6-yl)acetic acid]",33
11,"Cc1cc2nc(-c3ccnc(-c4ccc5c(cnn5C)c4)n3)sc2c(-c2ccc(Cl)cc2)c1[C@H](OC(C)(C)C)C(=O)O [Compound 110, (S)-2-tert-butoxy-2-(7-(4-chlorophenyl)-5-methyl-2-(2-(1-methyl-1H-indazol-5-yl)pyrimidin-4-yl)benzo[d]thiazol-6-yl)acetic acid]",14
12,"Cc1cc2nc(-c3cnc4cnn(C)c4c3)sc2c(-c2ccc(Cl)cc2)c1[C@H](OC(C)(C)C)C(=O)O [Compound 111, (S)-2-tert-butoxy-2-(7-(4-chlorophenyl)-5-methyl-2-(1-methyl-1H-pyrazolo[4,3-b]pyridin-6-yl)benzo[d]thiazol-6-yl)acetic acid]",8
13,Cc1cc2nc(-c3cnc4[nH]cc(C)c4c3)sc2c(-c2ccc(Cl)cc2)c1[C@H](OC(C)(C)C)C(=O)O [Compound 112],28
14,"Cc1cc2nc(-c3ccc4c(cnn4C)c3)sc2c(-c2ccc(Cl)cc2)c1[C@H](OC(C)(C)C)C(=O)O [Compound 113b, (S)-2-tert-butoxy-2-(7-(4-chlorophenyl)-5-methyl-2-(1-methyl-1H-indazol-5-yl)benzo[d]thiazol-6-yl)acetic acid]",18
15,"Cc1cc2nc(-c3cncc(-c4ccc5c(cnn5C)c4)c3)sc2c(-c2ccc(Cl)cc2)c1[C@H](OC(C)(C)C)C(=O)O [Compound 114, (S)-2-tert-butoxy-2-(7-(4-chlorophenyl)-5-methyl-2-(5-(1-methyl-1H-indazol-5-yl)pyridin-3-yl)benzo[d]thiazol-6-yl)acetic acid]",13
16,"Cc1cc2nc(-c3ccnc(-c4ccc5[nH]ncc5c4)c3)sc2c(-c2ccc(Cl)cc2)c1[C@H](OC(C)(C)C)C(=O)O [Compound 115, (S)-2-(2-(2-(1H-indazol-5-yl)pyridin-4-yl)-7-(4-chlorophenyl)-5-methylbenzo[d]thiazol-6-yl)-2-tert-butoxyacetic acid]",13
17,"Cc1cc2nc(-c3cnc4c(cnn4C)c3)sc2c(-c2ccc(Cl)cc2)c1[C@H](OC(C)(C)C)C(=O)O [Compound 116, (S)-2-tert-butoxy-2-(7-(4-chlorophenyl)-5-methyl-2-(1-methyl-1H-pyrazolo[3,4-b]pyridin-5-yl)benzo[d]thiazol-6-yl)acetic acid]",19

# Same assay, conditions: Human immunodeficiency virus 1, IIIB, MT4, 120 h, Table 2; MT-4 cells infected with HIV-IIIb, 5 days of incubation, CellTiter-Glo; read-out: EC50
row,SMILES,EC50 [nM]
1,"Cc1cc2nc(-c3ccnc(N4CCN(C(C)C)CC4C)n3)sc2c(-c2ccc(Cl)cc2)c1[C@H](OC(C)(C)C)C(=O)O (stereo in doubt) [Compound 467, (S)-2-tert-butoxy-2-(7-(4-chlorophenyl)-2-(2-((R)-4-isopropyl-2-methylpiperazin-1-yl)pyrimidin-4-yl)-5-methylbenzo[d]thiazol-6-yl)acetic acid]",5

# Same assay, conditions: Table 1; MT-4 cells infected with HIV-IIIb, 5 days of incubation, CellTiter-Glo; read-out: EC50
row,SMILES,EC50 [nM]
1,"Cc1cc2nc(N3CCCC3)sc2c(-c2ccc3c4c(ccnc24)CCO3)c1[C@H](OC(C)(C)C)C(=O)O (atropisomer, axis not shown) [Compound 50, (S)-2-tert-butoxy-2-((S)-7-(2,3-dihydropyrano[4,3,2-de]quinolin-7-yl)-5-methyl-2-(pyrrolidin-1-yl)benzo[d]thiazol-6-yl)acetic acid]",52.8
2,"Cc1cc2nc(N3CCCC3)sc2c(-c2ccc3c4c(ccnc24)CCO3)c1[C@H](OC(C)(C)C)C(=O)O (atropisomer, axis not shown) [Compound 51, (S)-2-tert-butoxy-2-((R)-7-(2,3-dihydropyrano[4,3,2-de]quinolin-7-yl)-5-methyl-2-(pyrrolidin-1-yl)benzo[d]thiazol-6-yl)acetic acid]",5250
3,"Cc1cc2nc(N3CC(F)(F)C3)sc2c(-c2ccc3c4c(ccnc24)CCO3)c1[C@H](OC(C)(C)C)C(=O)O (atropisomer, axis not shown) [Compound 52, (S)-2-tert-butoxy-2-((S)-2-(3,3-difluoroazetidin-1-yl)-7-(2,3-dihydropyrano[4,3,2-de]quinolin-7-yl)-5-methylbenzo[d]thiazol-6-yl)acetic acid]",53.4
4,"Cc1cc2nc(N3CC(F)(F)C3)sc2c(-c2ccc3c4c(ccnc24)CCO3)c1[C@H](OC(C)(C)C)C(=O)O (atropisomer, axis not shown) [Compound 53, (S)-2-tert-butoxy-2-((R)-2-(3,3-difluoroazetidin-1-yl)-7-(2,3-dihydropyrano[4,3,2-de]quinolin-7-yl)-5-methylbenzo[d]thiazol-6-yl)acetic acid]",37500
5,"COC1CN(c2nc3cc(C)c([C@H](OC(C)(C)C)C(=O)O)c(-c4ccc5c6c(ccnc46)CCO5)c3s2)C1 (atropisomer, axis not shown) [Compound 54, (S)-2-tert-butoxy-2-((S)-7-(2,3-dihydropyrano[4,3,2-de]quinolin-7-yl)-2-(3-methoxyazetidin-1-yl)-5-methylbenzo[d]thiazol-6-yl)acetic acid]",274
6,"COC1CN(c2nc3cc(C)c([C@H](OC(C)(C)C)C(=O)O)c(-c4ccc5c6c(ccnc46)CCO5)c3s2)C1 (atropisomer, axis not shown) [Compound 55, (S)-2-tert-butoxy-2-((R)-7-(2,3-dihydropyrano[4,3,2-de]quinolin-7-yl)-2-(3-methoxyazetidin-1-yl)-5-methylbenzo[d]thiazol-6-yl)acetic acid]",53000
7,"Cc1cc2nc(-c3cccc(-c4ccc5c(cnn5C)c4)c3)sc2c(-c2ccc3c4c(ccnc24)CCO3)c1[C@H](OC(C)(C)C)C(=O)O (atropisomer, axis not shown) [Compound 164]",483
